Data set [1] deals with T1, Tyrosine-protein phosphatase non-receptor type 1 (Homo sapiens, UniProt P18031).
T1 sequence (P18031 whole entry): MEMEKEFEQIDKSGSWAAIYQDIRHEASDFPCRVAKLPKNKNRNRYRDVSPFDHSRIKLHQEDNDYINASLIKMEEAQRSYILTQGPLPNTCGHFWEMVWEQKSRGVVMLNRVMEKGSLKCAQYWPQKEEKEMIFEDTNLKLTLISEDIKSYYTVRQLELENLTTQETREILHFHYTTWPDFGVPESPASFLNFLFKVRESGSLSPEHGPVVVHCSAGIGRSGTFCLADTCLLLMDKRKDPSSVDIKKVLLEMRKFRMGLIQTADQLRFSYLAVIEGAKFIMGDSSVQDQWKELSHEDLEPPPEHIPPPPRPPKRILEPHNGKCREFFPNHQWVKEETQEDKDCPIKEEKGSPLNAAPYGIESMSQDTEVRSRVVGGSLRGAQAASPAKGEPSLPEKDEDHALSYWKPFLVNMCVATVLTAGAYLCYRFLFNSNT
Description: Inhibition of PTP1B (unknown origin) using nitrophenyl phosphate as substrate after 30 mins by spectrophotometry.

The test system of a further data set is A-431. Description: Cytotoxicity against human A431 cells at 100 uM by SRB method. To be noted: a-431, 100 µM. It counts as cell-based. A general note: In SRB staining, fixed cells bind dye roughly in proportion to their protein.

Each structure is given as a SMILES string.

By IC50 is commonly meant the midpoint of a concentration-inhibition curve. A lower IC50 goes with greater potency. In data set [1], `CC1=CC(C)(C)N=C2C[C@@]3(C)CC(=O)C(C(C)C)=C3C=C12` yielded an IC50 of 9.71 µM. The Activity entry in the data set with A-431 is reported as “Non-toxic”.

The molecule `CC1=CC(C)(C)N=C2C[C@@]3(C)CC(=O)C(C(C)C)=CC3=C12` yielded an IC50 in data set [1] of 9.97 µM. Also, the Activity entry in the data set on A-431 was “Non-toxic”.

In turn, `CC1=CC(C)(C)N=C2C[C@]3(C)C(=O)C(C)(C)N=C3C(C)=C12` yielded an IC50 in data set [1] of 6.44 µM. In addition, the Activity entry with A-431 is recorded as “Non-toxic”.

The values are drawn from ChEMBL document CHEMBL3232899, “Highly conjugated norditerpenoid and pyrroloquinoline alkaloids with potent PTP1B inhibitory activity from Nigella glandulifera” (J Nat Prod, 2014).
